Patent US7767200B2, “Cancer treatment using viruses, fluoropyrimidines and camptothecins” (Wellstat Biologics Corporation, priority 2005, dated 2010)

How the values were obtained:
[1] = tested on: human HT1080 fibrosarcoma cells; set-up: species or system athymic mice; settings: mouse, in vivo
[2] = tested on: human SW620 colon carcinoma cells; set-up: species or system athymic mice; settings: mouse, in vivo

Row | SMILES | Complete Tumor Responses (CR), % [1] [%] | Durable CRs, % [2] [%]
1 | O=c1[nH]cc(F)c(=O)[nH]1 [5-FU, 5-fluorouracil] | 0 | 0
2 | CCc1c2c(nc3ccc(OC(=O)N4CCC(N5CCCCC5)CC4)cc13)-c1cc3c(c(=O)n1C2)COC(=O)[C@]3(O)CC [Irinotecan, 7-ethyl-10-[4-(1-piperidino)-1-piperidino]-carbonyloxycamptothecin] |  | 0
